Results taken from patent publication US20070037883A1, “Therapeutic compositions” (priority 2003, published 2007).
Entries after “also recorded” stand apart in the source; their conditions may differ.

What was measured:
[1] = target: T1, gp91phox-containing NADPH-oxidase in the mouse macrophage cell line J774 (Mus musculus, UniProt Q61093); assay: NADPH oxidase activity in intact J774 mouse macrophages; assay type: cell-based; details: FIG. 2b
T1 construct: endogenous in cells; host or cells: J774 mouse macrophage cell line (intact cells)
T1 sequence (Q61093 2-570 limits assumed): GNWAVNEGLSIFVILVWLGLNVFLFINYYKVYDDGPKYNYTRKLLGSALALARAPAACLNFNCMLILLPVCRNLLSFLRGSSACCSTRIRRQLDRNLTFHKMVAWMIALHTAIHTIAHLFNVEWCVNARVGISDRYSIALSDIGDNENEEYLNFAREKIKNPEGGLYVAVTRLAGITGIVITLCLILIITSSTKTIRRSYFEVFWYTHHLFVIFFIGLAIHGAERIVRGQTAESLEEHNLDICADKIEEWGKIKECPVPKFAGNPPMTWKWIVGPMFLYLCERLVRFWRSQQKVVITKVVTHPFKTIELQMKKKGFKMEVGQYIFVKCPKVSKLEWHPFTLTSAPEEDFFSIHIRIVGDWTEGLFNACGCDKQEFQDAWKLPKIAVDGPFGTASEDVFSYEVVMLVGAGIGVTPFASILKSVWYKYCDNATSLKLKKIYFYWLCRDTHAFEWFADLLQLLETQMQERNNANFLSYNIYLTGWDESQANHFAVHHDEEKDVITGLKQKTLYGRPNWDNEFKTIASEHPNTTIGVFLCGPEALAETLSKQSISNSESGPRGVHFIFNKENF
T1 sequence (Q61462 1-192 partner): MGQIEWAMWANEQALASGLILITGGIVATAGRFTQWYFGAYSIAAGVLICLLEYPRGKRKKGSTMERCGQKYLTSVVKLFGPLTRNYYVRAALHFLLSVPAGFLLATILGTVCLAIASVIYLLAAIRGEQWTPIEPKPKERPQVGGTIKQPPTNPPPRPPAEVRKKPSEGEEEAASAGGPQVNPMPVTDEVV

[2] = target: T2, Nox4-containing NADPH-oxidase in mouse endothelium (Mus musculus, UniProt Q9JHI8); assay: NADPH-driven NADPH-oxidase activity in mouse endothelium; assay type: cell-based; details: suramin ≦100 μM
T2 construct: Nox4-containing NADPH-oxidase in mouse vascular smooth muscle cells (VSMC, a) and endothelium; endogenous in cells; host or cells: mouse endothelium (preparation not described)
T2 sequence (Q9JHI8 1-578): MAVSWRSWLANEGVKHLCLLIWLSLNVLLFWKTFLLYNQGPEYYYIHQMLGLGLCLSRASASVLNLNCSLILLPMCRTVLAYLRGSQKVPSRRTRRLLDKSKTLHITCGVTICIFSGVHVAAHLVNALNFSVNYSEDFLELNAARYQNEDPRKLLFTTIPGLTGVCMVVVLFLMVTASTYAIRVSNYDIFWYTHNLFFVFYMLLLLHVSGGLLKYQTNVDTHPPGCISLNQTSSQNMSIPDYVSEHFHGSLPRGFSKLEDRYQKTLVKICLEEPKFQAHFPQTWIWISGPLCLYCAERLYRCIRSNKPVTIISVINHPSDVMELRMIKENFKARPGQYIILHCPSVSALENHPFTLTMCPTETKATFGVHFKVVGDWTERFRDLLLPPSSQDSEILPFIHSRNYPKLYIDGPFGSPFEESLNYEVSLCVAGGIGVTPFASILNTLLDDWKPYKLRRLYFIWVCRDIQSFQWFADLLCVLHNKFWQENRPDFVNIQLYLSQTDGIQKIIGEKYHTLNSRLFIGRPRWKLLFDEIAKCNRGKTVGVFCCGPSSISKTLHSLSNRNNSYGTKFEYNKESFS
T2 sequence (Q61462 1-192 partner): T1 sequence (Q61462 1-192 partner)

[3] = tested on: atherosclerotic lesion formation in ApoE−/− mice; assay: Atherosclerotic lesion formation in aortas of fat-fed ApoE mutant mice; assay type: in vivo, mouse; details: high-fat diet, weekly s.c. suramin for 4 months, vs saline
Procedure: ApoE^−/− mice: Whole aortas are isolated and cut open via an incision along the ventral wall [Jiang et al., 2001, supra]. Tissues are rinsed with 60% v/v isopropanol and stained with oil red O (0.5%) for 10 minutes at room temperature. After staining, tissues are rinsed in 60% v/v sopropanol and preserved in 10% v/v neutral buffered formalin. The en face surface of the aorta is then imaged and lesion area (red-stained) quantified using MCID imaging analysis software.
Twelve-week-old ApoE mutant mice were fed a high fat diet for a further 4 months. During this 4 month period, the mice were given weekly subcutaneous injections of saline or suramin. Specifically, mice were initially dosed with two weekly injections of 300 mg/kg suramin. Four weeks later a 25 mg/kg dose of suramin was administered, and then weekly doses of 15 mg/kg suramin were administered for a further 11 weeks. At the end of the treatment period, mice were killed by anaesthetic overdose and the aorta was removed, cleaned of adherent fat on the adventitial surface, and then cut longitudinally along the entire length. […] The en face surface of the aorta was then imaged and lesion area (red-stained) quantified and expressed as a percent of total luminal surface area for each of: total aorta, thoracic aorta, abdominal aorta, and aortic arch. […]

[4] = tested on: cerebral artery NADPH-oxidase activity; assay: NADPH-induced superoxide production by the rat basilar artery in vitro after subarachnoid haemorrhage, chronic in vivo treatment; set-up: species or system Sprague-Dawley rats; details: FIG. 13
Procedure: Subarachnoid hemorrhage: On Day 0, rats are briefly anaesthetized (pentobarbital 50 mg/kg ip) and an osmotic minipump containing either saline or suramin is implanted subcutaneously. The dose rate of suramin is 300 mg/kg per 7 days. On Day 5, rats are again anaesthetized and 0.3 ml of blood is withdrawn from a femoral artery and injected into the cerebrospinal fluid around the ventral surface of the brain via the cisterna magna. In some control rats, saline is injected into the cerebrospinal fluid instead of arterial blood. The rat is allowed to recover for a further 2 days, and is then again anaesthetized on Day 7 for study.
On Day 0, rats were briefly anaesthetized and an osmotic minipump containing either saline or suramin was implanted subcutaneously. The dose rate of suramin was 30 or 300 mg/kg per 7 days. On Day 5, rats were again anaesthetized and 0.3 ml of blood was withdrawn from a femoral artery and injected into the cerebrospinal fluid around the ventral surface of the brain via the cisterna magna. In some rats, saline was injected into the cerebrospinal fluid instead of arterial blood. […]
The brain was removed and the basilar artery was isolated and then incubated with 5 micromolar lucigenin, 100 micromolar NADPH and 3 millimolar diethyldithiocarbamate. Superoxide production was measured using lucigenin-enhanced chemiluminescence.

- effect on gp91phox-containing NADPH-oxidase in J774 macrophages / phagocytic cells ([1]; listed as Suramin): little effect
- inhibition of 100 μM NADPH-driven activity of Nox4-containing NADPH-oxidase in endothelium [2]: fully inhibits
Compound: Cc1ccc(C(=O)Nc2ccc(S(=O)(=O)O)c3cc(S(=O)(=O)O)cc(S(=O)(=O)O)c23)cc1NC(=O)c1cccc(NC(=O)Nc2cccc(C(=O)Nc3cc(C(=O)Nc4ccc(S(=O)(=O)O)c5cc(S(=O)(=O)O)cc(S(=O)(=O)O)c45)ccc3C)c2)c1 [suramin]
- effect on gp91phox-containing NADPH-oxidase in J774 macrophages / phagocytic cells [1]: does not inhibit; also recorded: ineffective
- atherosclerotic lesion area: total aorta, thoracic aorta, abdominal aorta ([3]; FIG. 12): markedly smaller lesion areas; also recorded: smaller lesion area
- lesion size in the aortic arch ([3]; FIG. 12b): no effect
- NADPH (100 μM)-driven superoxide production by isolated basilar artery, control rats ([4]; suramin 30-300 mg/kg over 7 days, control rats without SAH): no effect
- NADPH-driven superoxide production by basilar artery 2 days after SAH ([4]; suramin 30 or 300 mg/kg per 7 days s.c. minipump, rats subjected to SAH): not different from levels measured in non-operated control rats; also recorded: prevents the increase
